Data from patent US7101667B2, “Lanthanide binding tags” (Massachusetts Institute of Technology, priority 2001, dated 2006).

T1: RNAse S-protein (bovine, UniProt P61823 47-150)
T1 construct: range 21-124; Numbers count on mature RNAse A; also called Pro-S
T1 sequence (looked up): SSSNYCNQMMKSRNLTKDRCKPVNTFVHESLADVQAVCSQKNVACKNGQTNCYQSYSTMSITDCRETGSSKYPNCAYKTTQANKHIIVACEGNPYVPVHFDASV

T2: LBT-GPPP-S-Peptide
T2 chain: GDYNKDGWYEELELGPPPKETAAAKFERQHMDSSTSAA


Columns and labels:
[1] = Tb^3+ affinity of LBT-S-peptide fusions by isothermal titration calorimetry; type: binding
Description: The affinity of the LBT site for terbium in the context of the fusion peptide was also unchanged when compared with the unmodified LBT sequences with affinities in the low μM range.

[2] = Steady-state terbium fluorescence of LBT-S-peptide fusions compared to LBT1; type: physicochemical
Description: Steady-state fluorescence experiments of the LBT-S-peptide fusions indicated minimal impact of the fusion on the terbium fluorescence compared to LBT1 (see Table 2).

[3] = Tb^3+ binding affinity of the disulfide constrained LBT
Method: Affinity is determined by titration with lanthanide and detection using fluorescence, circular dichroism, NMR or calorimetry. In the case of tightly binding sequences, it may be necessary to employ competition experiments.
The disulfide constained LBT, ACA-[…]-CAA (known as CC2) binds to Tb^3+ with a KD of 300 nM, an order of magnitude more tightly than other reported Ca-binding peptides. (Kanellis, et al. Arch. Biochem. Biophys. 1983, 220, 530-540; Lopez, et al. Proc. Natl. Acad. Sci. USA 2002, 99, 1298-1303).

[4] = Lanthanide affinity of free LBT and HIS-LBT-Ub by calorimetry; type: binding; settings: read-out: KD for lanthanide ions
Description: The purified LBT-protein conjugates were further studied to assess whether the fluorescence and binding properties of the LBT were preserved in the protein conjugates.

RNAse S-protein = molecular target: T1, RNAse S-protein; experiment: isothermal titration calorimetry
LBT-GPPP-S-Peptide = molecular target: T2, LBT-GPPP-S-Peptide
[5] = read-out: KD Tb^3+ S-Peptide, fusion peptide alone
[6] = read-out: KD Tb^3+ [S-Peptide/S-protein], peptide complexed with S-protein

Row | Molecule | Kd [1, 5] [µM] | Kd [1, 6] [µM] | Fluorescence Relative to LBT1 [2] [%] | other results
1 | CSCC[C@H](NC(=O)[C@H](Cc1c[nH]cn1)NC(=O)[C@H](CCC(N)=O)NC(=O)[C@H](CCCNC(=N)N)NC(=O)[C@H](CCC(=O)O)NC(=O)[C@H](Cc1ccccc1)NC(=O)[C@H](CCCCN)NC(=O)[C@H](C)NC(=O)[C@H](C)NC(=O)[C@H](C)NC(=O)[C@@H](NC(=O)[C@H](CCC(=O)O)NC(=O)[C@H](CCCCN)NC(=O)[C@@H]1CCCN1C(=O)[C@@H]1CCCN1C(=O)[C@@H]1CCCN1C(=O)CNC(=O)[C@H](CC(C)C)NC(=O)[C@H](CCC(=O)O)NC(=O)[C@H](CC(C)C)NC(=O)[C@H](CCC(=O)O)NC(=O)[C@H](CCC(=O)O)NC(=O)[C@H](Cc1ccc(O)cc1)NC(=O)[C@H](Cc1c[nH]c2ccccc12)NC(=O)CNC(=O)[C@H](CC(=O)O)NC(=O)[C@H](CCCCN)NC(=O)[C@H](CC(N)=O)NC(=O)[C@H](Cc1ccc(O)cc1)NC(=O)[C@H](CC(=O)O)NC(=O)CN)[C@@H](C)O)C(=O)N[C@@H](CC(=O)O)C(=O)N[C@@H](CO)C(=O)N[C@@H](CO)C(=O)N[C@H](C(=O)N[C@@H](CO)C(=O)N[C@@H](C)C(=O)N[C@@H](C)C(=O)O)[C@@H](C)O [LBT-GPPP-S-Peptide] | 6.6 | 6.7 | 96 | –
2 | CSCC[C@H](NC(=O)[C@H](Cc1c[nH]cn1)NC(=O)[C@H](CCC(N)=O)NC(=O)[C@H](CCCNC(=N)N)NC(=O)[C@H](CCC(=O)O)NC(=O)[C@H](Cc1ccccc1)NC(=O)[C@H](CCCCN)NC(=O)[C@H](C)NC(=O)[C@H](C)NC(=O)[C@H](C)NC(=O)[C@@H](NC(=O)[C@H](CCC(=O)O)NC(=O)[C@H](CCCCN)NC(=O)[C@@H]1CCCN1C(=O)[C@@H]1CCCN1C(=O)[C@H](CC(C)C)NC(=O)[C@H](CCC(=O)O)NC(=O)[C@H](CC(C)C)NC(=O)[C@H](CCC(=O)O)NC(=O)[C@H](CCC(=O)O)NC(=O)[C@H](Cc1ccc(O)cc1)NC(=O)[C@H](Cc1c[nH]c2ccccc12)NC(=O)CNC(=O)[C@H](CC(=O)O)NC(=O)[C@H](CCCCN)NC(=O)[C@H](CC(N)=O)NC(=O)[C@H](Cc1ccc(O)cc1)NC(=O)[C@H](CC(=O)O)NC(=O)CN)[C@@H](C)O)C(=O)N[C@@H](CC(=O)O)C(=O)N[C@@H](CO)C(=O)N[C@@H](CO)C(=O)N[C@H](C(=O)N[C@@H](CO)C(=O)N[C@@H](C)C(=O)N[C@@H](C)C(=O)O)[C@@H](C)O [LBT-PP-S-Peptide] | 3.3 | 9.6 | 86 | –
3 | ACA-DYNKDGWYEELE-CAA [CC2, cysteine constrained variant of LBT1] | – | – | – | Kd [3]: 0.3 µM
4 | GDYNKDGWYEELEL [LBT1] | – | – | – | Kd [4]: 5 µM; KD Tb^3+ S-Peptide ([1]; fusion peptide alone): low μM
5 | GDYNKDGWYEELELGPPPKETAAAKFERQHMDSSTSAA (also called LBT-S-peptide fusion; LBT tagged S-peptide analog) [LBT-GPPP-S-Peptide] | – | – | – | Kd (RNAse S-protein): 0.3 µM
6 | RNAse S-protein (protein) SSSNYCNQMMKSRNLTKDRCKPVNTFVHESLADVQAVCSQKNVACKNGQTNCYQSYSTMSITDCRETGSSKYPNCAYKTTQANKHIIVACEGNPYVPVHFDASV | – | – | – | catalytic activity of the reconstituted enzymes (cleavage of a fluorescent RNA substrate) (LBT-PP-S-Peptide): the S-protein/LBT-S-peptide construct has similar catalytic activity to the native RNAse S in the absence of Tb^+3; catalytic activity of the reconstituted enzymes (cleavage of a fluorescent RNA substrate) (LBT-GPPP-S-Peptide): the S-protein/LBT-S-peptide construct has similar catalytic activity to the native RNAse S in the absence of Tb^+3
